ChEMBL document CHEMBL5465560, “Selectivity Literature for EUbOPEN Chemogenomic Library” (2024)
Each block holds one molecule with its values, some of them ahead of it.

How the values were obtained:
[1] = biological target: B2 bradykinin receptor (Homo sapiens) (UniProt P30411); experiment: Selectivity interaction (Eurofins CEREP Diversity Profile (receptors and ion channels)) EUB0000279b BDKRB2; details: at 10 µM
[2] = biological target: Voltage-dependent L-type calcium channel subunit alpha-1S (Homo sapiens) (UniProt Q13698); experiment: Selectivity interaction (Eurofins CEREP Diversity Profile (receptors and ion channels)) EUB0000279b CACNA1S; details: at 10 µM
[3] = biological target: 5-hydroxytryptamine receptor 2A (Homo sapiens, UniProt P28223); experiment: Selectivity interaction (GPCR panel (PDSP screen)) EUB0001079a HTR2A; details: at 10 µM
[4] = biological target: LIM domain kinase 2 (Homo sapiens) (UniProt P53671); experiment: Selectivity interaction (KinomeScan (DiscoverX)) EUB0000618a LIMK2; details: at 10 µM
[5] = biological target: Cyclin-dependent kinase 17 (Homo sapiens) (UniProt Q00537); experiment: Selectivity interaction (ActivX KiNativ screen (ex vivo kinase selectivity in human PBMCs)) EUB0001619a CDK17; format: cell-based; details: PBMC, at 1 µM
[6] = biological target: T1, MAP/microtubule affinity-regulating kinase 4 (Homo sapiens) (UniProt Q96L34); experiment: Selectivity interaction (ActivX KiNativ screen (kinase selectivity in THP-1 cell lysates)) EUB0000639a MARK4; format: subcellular; details: lysate, at 0.2 µM
T1 sequence (whole entry): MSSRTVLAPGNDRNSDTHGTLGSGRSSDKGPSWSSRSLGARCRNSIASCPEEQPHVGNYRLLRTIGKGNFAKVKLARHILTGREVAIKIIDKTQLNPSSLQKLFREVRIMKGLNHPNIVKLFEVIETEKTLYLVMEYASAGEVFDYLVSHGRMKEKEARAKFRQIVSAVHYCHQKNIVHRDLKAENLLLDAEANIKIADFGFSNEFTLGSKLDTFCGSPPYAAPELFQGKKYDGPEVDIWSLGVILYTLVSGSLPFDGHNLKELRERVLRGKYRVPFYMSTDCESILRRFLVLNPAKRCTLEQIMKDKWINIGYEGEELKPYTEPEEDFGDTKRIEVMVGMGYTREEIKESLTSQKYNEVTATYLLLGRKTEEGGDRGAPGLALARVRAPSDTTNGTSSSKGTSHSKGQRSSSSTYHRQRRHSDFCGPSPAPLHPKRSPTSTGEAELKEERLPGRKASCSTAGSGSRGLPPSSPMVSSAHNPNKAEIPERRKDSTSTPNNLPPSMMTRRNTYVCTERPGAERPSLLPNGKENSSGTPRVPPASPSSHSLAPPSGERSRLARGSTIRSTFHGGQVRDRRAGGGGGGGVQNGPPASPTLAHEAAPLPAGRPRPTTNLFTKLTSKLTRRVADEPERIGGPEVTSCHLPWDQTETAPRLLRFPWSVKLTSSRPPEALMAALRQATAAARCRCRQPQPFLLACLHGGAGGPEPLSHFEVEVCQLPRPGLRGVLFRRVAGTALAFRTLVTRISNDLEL

[7] = biological target: T2, Aurora kinase A (Homo sapiens) (UniProt O14965); experiment: Selectivity interaction (ActivX KiNativ screen (kinase selectivity in THP-1 cell lysates)) EUB0000639a STK6; format: subcellular; details: lysate, at 1 µM
T2 sequence (whole entry): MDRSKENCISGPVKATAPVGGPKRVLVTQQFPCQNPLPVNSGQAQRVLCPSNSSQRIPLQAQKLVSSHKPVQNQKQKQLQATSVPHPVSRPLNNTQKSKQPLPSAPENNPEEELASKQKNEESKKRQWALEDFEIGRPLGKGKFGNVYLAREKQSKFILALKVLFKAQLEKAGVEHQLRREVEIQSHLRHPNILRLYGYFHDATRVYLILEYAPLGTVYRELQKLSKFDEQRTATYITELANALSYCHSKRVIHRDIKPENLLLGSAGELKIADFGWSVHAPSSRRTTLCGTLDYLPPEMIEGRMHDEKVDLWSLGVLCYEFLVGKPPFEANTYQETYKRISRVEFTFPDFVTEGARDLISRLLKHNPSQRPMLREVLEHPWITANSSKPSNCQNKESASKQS

[8] = biological target: T3, Protein arginine N-methyltransferase 7 (Homo sapiens) (UniProt Q9NVM4); experiment: Selectivity interaction (Transferase panel (protein, RNA, and DNA methyltransferases. and EP300 (acetyltransferase))) EUB0000270b PRMT7
T3 sequence (whole entry): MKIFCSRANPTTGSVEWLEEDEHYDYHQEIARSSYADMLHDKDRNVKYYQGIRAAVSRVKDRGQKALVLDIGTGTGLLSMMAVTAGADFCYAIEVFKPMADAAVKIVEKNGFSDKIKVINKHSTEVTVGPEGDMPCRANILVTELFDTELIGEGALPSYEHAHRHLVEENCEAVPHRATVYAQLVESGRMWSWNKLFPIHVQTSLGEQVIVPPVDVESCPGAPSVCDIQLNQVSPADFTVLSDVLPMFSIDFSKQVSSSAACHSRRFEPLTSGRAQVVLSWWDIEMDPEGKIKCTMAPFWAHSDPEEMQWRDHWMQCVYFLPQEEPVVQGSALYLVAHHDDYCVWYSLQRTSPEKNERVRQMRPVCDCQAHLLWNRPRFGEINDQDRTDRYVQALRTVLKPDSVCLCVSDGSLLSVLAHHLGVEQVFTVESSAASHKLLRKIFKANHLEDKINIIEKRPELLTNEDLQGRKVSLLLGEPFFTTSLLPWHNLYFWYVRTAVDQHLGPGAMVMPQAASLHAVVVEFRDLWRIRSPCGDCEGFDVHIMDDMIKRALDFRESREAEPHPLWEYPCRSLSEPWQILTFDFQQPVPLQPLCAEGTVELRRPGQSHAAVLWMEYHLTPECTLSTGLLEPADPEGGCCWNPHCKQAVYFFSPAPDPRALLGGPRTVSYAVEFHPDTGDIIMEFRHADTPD

Chain of B2 bradykinin receptor (Homo sapiens) (P30411 whole entry): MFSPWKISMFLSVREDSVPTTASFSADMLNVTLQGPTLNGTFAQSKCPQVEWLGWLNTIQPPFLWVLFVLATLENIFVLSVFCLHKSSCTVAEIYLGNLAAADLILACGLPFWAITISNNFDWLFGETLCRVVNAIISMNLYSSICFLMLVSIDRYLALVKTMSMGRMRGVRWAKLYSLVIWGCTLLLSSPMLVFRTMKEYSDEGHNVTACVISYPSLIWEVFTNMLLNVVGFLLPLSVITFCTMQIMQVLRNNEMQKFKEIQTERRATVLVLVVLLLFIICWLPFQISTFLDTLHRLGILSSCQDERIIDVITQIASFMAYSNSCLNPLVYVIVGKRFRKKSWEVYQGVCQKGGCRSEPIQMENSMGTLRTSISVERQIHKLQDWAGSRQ
Chain of Voltage-dependent L-type calcium channel subunit alpha-1S (Homo sapiens) (Q13698 whole entry): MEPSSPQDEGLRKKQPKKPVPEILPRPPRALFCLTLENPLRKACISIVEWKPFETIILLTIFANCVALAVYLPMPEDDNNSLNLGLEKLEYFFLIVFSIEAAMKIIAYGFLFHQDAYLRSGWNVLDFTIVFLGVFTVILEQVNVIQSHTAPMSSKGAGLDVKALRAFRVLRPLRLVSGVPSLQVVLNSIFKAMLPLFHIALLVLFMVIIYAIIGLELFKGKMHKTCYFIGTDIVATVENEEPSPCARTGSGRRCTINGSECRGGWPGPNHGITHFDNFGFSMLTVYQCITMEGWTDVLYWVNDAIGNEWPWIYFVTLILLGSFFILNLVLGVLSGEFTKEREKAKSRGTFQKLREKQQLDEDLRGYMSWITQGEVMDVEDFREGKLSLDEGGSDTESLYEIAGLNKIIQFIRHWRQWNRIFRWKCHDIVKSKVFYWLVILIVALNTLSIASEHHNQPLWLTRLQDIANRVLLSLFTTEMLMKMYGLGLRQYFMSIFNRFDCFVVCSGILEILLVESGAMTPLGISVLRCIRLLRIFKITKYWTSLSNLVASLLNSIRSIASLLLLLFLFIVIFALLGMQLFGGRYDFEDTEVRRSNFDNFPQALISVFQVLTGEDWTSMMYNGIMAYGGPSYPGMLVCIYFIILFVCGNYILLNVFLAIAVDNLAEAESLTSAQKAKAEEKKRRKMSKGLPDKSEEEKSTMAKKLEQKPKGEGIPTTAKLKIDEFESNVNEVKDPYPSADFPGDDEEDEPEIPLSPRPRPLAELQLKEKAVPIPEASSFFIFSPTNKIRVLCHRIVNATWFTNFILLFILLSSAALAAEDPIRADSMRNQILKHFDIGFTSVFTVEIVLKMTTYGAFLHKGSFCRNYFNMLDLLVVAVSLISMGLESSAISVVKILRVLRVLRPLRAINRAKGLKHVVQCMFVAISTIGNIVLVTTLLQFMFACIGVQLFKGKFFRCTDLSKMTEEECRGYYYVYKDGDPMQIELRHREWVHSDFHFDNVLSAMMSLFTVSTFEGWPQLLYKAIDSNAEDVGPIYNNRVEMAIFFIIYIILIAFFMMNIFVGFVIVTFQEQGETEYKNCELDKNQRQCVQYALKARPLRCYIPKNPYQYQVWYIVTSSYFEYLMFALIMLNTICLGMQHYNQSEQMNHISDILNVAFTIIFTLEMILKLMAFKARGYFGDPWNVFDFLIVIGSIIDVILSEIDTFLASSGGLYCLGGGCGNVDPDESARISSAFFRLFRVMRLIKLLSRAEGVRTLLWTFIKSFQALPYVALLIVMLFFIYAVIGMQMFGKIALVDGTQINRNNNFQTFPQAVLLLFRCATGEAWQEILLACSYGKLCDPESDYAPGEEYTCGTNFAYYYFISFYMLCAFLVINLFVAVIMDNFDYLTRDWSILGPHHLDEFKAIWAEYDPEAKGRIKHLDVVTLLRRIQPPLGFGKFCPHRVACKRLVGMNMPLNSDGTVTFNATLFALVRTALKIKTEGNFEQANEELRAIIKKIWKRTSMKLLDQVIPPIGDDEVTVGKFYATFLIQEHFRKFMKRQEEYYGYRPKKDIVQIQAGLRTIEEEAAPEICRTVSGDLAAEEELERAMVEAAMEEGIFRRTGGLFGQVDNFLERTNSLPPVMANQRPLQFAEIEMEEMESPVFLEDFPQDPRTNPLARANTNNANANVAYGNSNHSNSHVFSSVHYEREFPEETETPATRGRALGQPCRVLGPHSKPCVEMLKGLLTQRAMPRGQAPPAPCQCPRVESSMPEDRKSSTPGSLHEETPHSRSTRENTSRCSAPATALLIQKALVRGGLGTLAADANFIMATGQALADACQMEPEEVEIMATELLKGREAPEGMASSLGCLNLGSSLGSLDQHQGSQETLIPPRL
Chain of LIM domain kinase 2 (Homo sapiens) (P53671 whole entry, looked up, the tested form may be a part): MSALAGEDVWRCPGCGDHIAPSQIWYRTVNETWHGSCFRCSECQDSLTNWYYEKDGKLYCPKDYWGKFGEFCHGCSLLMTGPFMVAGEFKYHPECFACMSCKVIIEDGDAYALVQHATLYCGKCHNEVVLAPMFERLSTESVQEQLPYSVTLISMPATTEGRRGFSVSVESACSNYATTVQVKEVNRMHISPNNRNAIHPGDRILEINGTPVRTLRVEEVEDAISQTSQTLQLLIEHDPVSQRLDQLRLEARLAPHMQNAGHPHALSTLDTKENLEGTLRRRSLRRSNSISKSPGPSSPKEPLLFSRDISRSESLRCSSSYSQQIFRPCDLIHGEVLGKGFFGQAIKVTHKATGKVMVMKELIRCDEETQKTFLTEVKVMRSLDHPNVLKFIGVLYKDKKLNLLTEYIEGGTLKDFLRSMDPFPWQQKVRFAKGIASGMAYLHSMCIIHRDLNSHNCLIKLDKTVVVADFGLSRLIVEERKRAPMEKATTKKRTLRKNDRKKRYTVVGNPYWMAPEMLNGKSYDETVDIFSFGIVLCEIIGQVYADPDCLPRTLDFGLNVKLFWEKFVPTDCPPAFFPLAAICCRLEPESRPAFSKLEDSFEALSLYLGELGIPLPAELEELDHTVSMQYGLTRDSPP
Chain of 5-hydroxytryptamine receptor 2A (P28223 whole entry, the tested form may be a part): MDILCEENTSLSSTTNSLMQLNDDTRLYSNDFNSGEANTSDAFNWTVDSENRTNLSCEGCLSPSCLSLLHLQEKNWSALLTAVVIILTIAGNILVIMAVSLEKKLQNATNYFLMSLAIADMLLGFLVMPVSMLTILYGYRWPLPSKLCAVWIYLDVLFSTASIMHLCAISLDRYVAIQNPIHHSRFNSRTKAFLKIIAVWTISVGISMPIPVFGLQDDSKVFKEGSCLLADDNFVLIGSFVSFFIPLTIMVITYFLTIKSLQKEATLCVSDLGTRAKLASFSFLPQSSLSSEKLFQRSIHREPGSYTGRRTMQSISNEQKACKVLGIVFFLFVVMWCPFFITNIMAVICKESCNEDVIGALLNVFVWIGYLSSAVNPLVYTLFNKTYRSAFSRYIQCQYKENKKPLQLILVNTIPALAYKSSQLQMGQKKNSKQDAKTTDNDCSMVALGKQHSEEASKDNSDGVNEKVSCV
Chain of Cyclin-dependent kinase 17 (Homo sapiens) (Q00537 whole entry, looked up): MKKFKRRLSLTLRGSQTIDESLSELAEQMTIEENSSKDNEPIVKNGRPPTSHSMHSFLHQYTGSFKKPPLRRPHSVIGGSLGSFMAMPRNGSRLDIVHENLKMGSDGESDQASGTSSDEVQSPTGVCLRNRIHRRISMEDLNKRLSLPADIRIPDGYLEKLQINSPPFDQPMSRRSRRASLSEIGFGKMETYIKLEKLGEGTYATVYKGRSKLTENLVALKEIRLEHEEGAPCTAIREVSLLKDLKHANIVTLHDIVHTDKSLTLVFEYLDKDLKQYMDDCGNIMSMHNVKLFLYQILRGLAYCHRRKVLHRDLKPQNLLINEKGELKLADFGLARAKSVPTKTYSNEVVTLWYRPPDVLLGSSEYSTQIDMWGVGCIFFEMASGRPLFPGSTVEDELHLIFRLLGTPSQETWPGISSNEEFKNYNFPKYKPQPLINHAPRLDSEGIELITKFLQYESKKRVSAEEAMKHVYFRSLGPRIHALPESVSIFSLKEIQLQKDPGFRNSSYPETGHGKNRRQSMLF

% of control [1]: 112%
% of control [2]: 89%
SMILES: CC(=O)c1cc(-c2ccccc2OCC2CC2)c2ncccn12

SMILES: Nc1cnc(N2CCc3cc(S(=O)(=O)Nc4c(F)cc(Cl)cc4F)cc(N4CCCC4=O)c32)nc1 [TP-020n]
% of inhibition [3]: -2.82%

SMILES: O[C@H]1CC[C@H](Nc2ncc3nc(Nc4c(F)cc(F)cc4F)n([C@H]4CCOC4)c3n2)CC1
% of control [4]: 29%

SMILES: N#Cc1cccc(-c2c[nH]c3ncnc(N4CCOCC4)c23)c1
% of inhibition [5]: 25%

% of inhibition [6]: 13.2%
% of inhibition [7]: 9.2%
SMILES: CC[C@@H]1[C@H](F)C(=O)N[C@@H]1COc1nccc2cc(C(N)=O)c(OC)cc12 [ZIMLOVISERTIB]

% activity ([8]; at 1 µM): > 90%
% activity ([8]; at 10 µM): > 80%
SMILES: Cc1cc(CN)cc(C)c1-c1ncn(C)c1-c1cncn1C
